Assay results as given in patent US20030027819A1, “Beta-sheet mimetics and methods relating to the use thereof” (Molecumetics Ltd., priority 1996, published 2003).
Several values for one entry are separate records, joined by “and”; a condition that tells them apart may be missing. Equal entries are not always repeated. Each block holds one molecule with its values, some of them ahead of it.

Key:
bovine thrombin = target: T1, bovine thrombin (Bos taurus, UniProt P00735); assay: Thrombin assay, hydrolysis of structure (11b) as proteolytic substrate; type: biochemical
T1 construct: 6.4 NIH units of bovine thrombin (from Sigma); purchased Sigma
Method: (§1) Both the thrombin and Factor VII assays of this experiment were carried out at 37° C. using a Hitachi UV/Vis spectrophotometer (model U-3000). Structure (11b) was dissolved in deionized water. The concentration was determined from the absorbance at 342 nm. […] Initial velocities were calculated from the initial linear portion of the reaction progress curve. Kinetic parameters were determined by unweighted nonlinear least-squares fitting of the simple Michaelis-Menten equation to the experimental data using GraFit (Version 3.0, Erithacus Software Limited).
For the thrombin assay, experiments were performed in pH 8.4 Tris buffer (Tris, 0.05M; NaCl, 0.15M). 6.4 NIH units of bovine thrombin (from Sigma) were dissolved into 10 ml of the assay buffer to yield 10 nM thrombin solution. […] The first two minutes of the reactions were recorded for initial velocity determination.
(§2) In both the thrombin and Factor VII assay of this experiment, (D)FPR-PNA was run as a control.

[1] = target: T2, human Factor VIIa (FVIIa) and human tissue factor (TF) (Homo sapiens, UniProt P08709); assay: Factor VII assay, hydrolysis of structure (11b) as proteolytic substrate; type: biochemical; details: ratio of kcat/KM
T2 construct: 10 μl of 20 μM human Factor VIIa (FVIIa)
T2 sequence (P08709 213-466 limits assumed): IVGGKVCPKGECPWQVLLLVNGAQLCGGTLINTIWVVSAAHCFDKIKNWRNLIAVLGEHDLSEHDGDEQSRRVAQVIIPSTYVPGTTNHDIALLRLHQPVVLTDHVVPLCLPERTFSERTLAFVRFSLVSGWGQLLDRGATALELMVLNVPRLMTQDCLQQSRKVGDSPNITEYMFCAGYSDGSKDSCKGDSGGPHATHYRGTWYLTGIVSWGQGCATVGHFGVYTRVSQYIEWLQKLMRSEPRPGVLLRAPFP
T2 sequence (P08709 61-212 limits assumed): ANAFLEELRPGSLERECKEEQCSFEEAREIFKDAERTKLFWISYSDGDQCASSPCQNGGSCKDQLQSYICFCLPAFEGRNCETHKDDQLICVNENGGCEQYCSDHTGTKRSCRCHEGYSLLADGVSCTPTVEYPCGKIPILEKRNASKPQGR
T2 sequence (P13726 33-295 partner): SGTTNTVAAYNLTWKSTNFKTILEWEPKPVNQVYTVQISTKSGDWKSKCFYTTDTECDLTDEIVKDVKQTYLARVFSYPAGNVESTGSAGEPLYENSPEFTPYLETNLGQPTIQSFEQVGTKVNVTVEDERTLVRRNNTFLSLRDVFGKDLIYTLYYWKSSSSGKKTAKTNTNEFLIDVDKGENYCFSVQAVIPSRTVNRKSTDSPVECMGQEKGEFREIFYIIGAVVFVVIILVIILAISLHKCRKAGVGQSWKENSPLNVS
Method: as §1
For the Factor VII assay, pH 8.0 Tris buffer (0.05 M Tris, 5 mM CaCl2, 0.15 M NaCl, 0.1% TWEEN 20, 0.1% BSA) was used. 10 μl of 20 μM human Factor VIIa (FVIIa) and 22 μM of human tissue factor (TF) was brought to assay buffer to make 160 nM FVIIa and TF solutions, respectively. […] The initial 3 minutes reaction progress curves were recorded. […] The kcat/KM was calculated from the slope and found to be 17,500 M^−1s^−1.
as §2

factor VII = factor VII (Homo sapiens, UniProt P08709); assay: Factor VII inhibition assay (Ki, Example 5); type: biochemical
Chain of factor VII (P08709 213-466 limits assumed): as the sequence (P08709 213-466 limits assumed) above
Chain of factor VII (P08709 61-212 limits assumed): as the sequence (P08709 61-212 limits assumed) above
Chain of factor VII (P13726 33-295 partner): as the sequence (P13726 33-295 partner) above
Method: (§3) The reaction progress curves were recorded by reading the plates, typically 60 times with 30 second to 2 minute intervals. Initial rates were determined by unweighted nonlinear least-squares fitting to a first order reaction in GraFit (Erithacus Software Limited, London, England).
From this concentration point seven more sequential dilutions were made for the assay.

factor X = factor X (Bos taurus, UniProt P00743); assay: Factor X inhibition assay (Ki, Example 5), bovine plasma enzyme; type: biochemical; details: bovine plasma enzyme (Example 5 protocol)
Chain of factor X (P00743 234-492 limits assumed): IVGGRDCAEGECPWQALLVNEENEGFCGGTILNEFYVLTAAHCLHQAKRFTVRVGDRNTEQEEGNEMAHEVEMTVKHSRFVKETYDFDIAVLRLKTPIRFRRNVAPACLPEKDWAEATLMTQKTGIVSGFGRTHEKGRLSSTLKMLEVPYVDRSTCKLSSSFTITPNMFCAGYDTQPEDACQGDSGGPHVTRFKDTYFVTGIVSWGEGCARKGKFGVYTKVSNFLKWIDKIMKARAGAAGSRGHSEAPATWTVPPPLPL
Chain of factor X (P00743 41-180 limits assumed): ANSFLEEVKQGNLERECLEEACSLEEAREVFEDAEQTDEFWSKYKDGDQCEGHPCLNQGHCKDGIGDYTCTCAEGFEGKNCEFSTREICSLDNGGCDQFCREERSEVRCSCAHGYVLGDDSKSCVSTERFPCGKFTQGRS
Method: as §3, with “The hydrolysis of chromogenic substrates was monitored at 405 nm. The” for “The”
Buffer and substrate were the same as used for thrombin assay. A 1:100 dilution was made in the pH8.0 tris buffer to serve as the first point. Seven more dilutions from the first were made for the assay.

urokinase [2] = target: T3, urokinase (Homo sapiens, UniProt P00749); assay: Urokinase inhibition assay (Ki, Example 5); type: biochemical
[3] = target: T4, Tissue Plasminogen Activator (t-PA) (Homo sapiens, UniProt P00750); assay: t-PA inhibition assay (Ki, Example 5); type: biochemical; details: read-out: Ki t-PA
T4 sequence (P00750 36-562): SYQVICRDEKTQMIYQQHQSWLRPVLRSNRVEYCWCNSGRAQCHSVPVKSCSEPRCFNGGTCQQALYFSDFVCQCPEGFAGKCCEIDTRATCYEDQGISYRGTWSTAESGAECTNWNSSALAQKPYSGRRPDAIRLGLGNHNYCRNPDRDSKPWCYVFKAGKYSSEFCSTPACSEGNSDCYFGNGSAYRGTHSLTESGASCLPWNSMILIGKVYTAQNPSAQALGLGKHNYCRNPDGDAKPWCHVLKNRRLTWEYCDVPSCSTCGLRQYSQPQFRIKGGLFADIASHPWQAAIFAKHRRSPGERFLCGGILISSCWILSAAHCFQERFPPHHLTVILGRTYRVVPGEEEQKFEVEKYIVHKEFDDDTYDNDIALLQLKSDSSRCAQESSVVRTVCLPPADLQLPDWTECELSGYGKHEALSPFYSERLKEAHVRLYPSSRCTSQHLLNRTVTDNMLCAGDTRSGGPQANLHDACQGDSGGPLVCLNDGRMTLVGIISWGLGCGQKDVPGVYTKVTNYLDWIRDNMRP
Method: as §3

[4] = target: Activated Protein C (aPC) (Homo sapiens, UniProt P04070); assay: Activated Protein C inhibition assay (Ki, Example 5); type: biochemical
Chain of Activated Protein C (aPC) (P04070 212-461 limits assumed): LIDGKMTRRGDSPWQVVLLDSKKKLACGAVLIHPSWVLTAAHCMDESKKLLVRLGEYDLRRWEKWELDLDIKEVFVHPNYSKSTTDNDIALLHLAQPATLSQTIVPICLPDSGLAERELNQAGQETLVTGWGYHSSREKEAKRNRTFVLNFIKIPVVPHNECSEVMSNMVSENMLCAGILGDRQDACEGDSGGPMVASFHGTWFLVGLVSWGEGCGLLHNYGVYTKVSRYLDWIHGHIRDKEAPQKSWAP
Chain of Activated Protein C (aPC) (P04070 43-197 limits assumed): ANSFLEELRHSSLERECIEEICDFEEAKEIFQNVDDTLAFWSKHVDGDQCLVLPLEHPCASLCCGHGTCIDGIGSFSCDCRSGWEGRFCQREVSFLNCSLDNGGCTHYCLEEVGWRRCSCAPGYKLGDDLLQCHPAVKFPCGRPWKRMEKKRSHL

Plasmin [5] = target: T5, Plasmin (Bos taurus, UniProt P06868); assay: Plasmin inhibition assay (Ki, Example 5); type: biochemical, bovine
T5 sequence (P06868 584-812 limits assumed): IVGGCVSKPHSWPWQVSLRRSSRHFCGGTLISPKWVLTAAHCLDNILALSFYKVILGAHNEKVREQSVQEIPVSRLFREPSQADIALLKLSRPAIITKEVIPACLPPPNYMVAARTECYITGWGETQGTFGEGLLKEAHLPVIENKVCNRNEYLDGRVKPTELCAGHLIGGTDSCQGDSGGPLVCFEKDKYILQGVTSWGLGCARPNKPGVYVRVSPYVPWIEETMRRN
T5 sequence (P06868 104-583 limits assumed): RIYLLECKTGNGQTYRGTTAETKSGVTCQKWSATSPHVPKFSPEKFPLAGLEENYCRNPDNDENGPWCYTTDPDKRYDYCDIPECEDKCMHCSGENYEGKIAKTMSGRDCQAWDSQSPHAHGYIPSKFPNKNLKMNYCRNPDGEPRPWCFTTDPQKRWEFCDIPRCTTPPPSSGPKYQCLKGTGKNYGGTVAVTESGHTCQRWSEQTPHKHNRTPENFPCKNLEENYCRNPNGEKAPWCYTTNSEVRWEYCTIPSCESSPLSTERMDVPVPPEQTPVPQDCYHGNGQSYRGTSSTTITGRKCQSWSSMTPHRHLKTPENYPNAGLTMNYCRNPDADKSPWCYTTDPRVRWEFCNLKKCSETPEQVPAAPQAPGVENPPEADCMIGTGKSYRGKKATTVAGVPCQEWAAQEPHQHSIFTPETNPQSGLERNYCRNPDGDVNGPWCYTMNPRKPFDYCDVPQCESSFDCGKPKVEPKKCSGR
Method: as §3

tryptase = tryptase (Homo sapiens, UniProt Q15661); assay: Tryptase inhibition assay (Ki, Example 5); type: biochemical
Chain of tryptase (Q15661 31-275): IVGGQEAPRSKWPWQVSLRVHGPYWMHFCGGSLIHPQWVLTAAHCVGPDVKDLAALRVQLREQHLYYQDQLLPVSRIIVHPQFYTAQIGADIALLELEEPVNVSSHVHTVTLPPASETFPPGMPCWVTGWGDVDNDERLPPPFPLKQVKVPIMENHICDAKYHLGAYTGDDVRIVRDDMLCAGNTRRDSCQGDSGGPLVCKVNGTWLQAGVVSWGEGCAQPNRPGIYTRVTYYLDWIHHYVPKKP

trypsin = target: T6, trypsin (Bos taurus, UniProt P00760); assay: Trypsin inhibition assay (Ki, Example 5); type: biochemical, bovine
T6 sequence (P00760 24-246): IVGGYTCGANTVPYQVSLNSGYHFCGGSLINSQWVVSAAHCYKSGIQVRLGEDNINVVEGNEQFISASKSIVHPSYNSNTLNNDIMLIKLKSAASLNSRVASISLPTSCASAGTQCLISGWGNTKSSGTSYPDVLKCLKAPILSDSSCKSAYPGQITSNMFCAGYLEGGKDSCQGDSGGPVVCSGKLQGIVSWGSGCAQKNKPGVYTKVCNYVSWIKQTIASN
Method: as §3

Factor XI = Factor XI (Homo sapiens, UniProt P03951); assay: Factor XI inhibition assay (Ki, Example 8); type: biochemical
Chain of Factor XI (P03951 388-625 limits assumed): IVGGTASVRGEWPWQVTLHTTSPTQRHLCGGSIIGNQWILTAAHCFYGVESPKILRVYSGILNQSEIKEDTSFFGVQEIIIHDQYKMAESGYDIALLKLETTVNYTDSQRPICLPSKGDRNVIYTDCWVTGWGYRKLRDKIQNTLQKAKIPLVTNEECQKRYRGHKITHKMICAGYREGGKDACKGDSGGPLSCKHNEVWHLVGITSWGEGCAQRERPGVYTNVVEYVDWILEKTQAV
Chain of Factor XI (P03951 19-387 limits assumed): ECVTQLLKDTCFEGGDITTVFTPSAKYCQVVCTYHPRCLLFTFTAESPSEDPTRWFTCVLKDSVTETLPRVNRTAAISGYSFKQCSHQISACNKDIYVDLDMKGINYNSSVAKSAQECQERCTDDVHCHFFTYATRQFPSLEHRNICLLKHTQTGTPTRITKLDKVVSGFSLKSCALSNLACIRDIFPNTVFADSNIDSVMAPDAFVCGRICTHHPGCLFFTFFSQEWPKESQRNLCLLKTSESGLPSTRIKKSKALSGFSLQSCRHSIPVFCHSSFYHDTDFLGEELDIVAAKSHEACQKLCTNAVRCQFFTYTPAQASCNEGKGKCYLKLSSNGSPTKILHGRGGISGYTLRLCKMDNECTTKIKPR
Method: as §3
Factor XI. The same buffer was utilized in this assay as in the thrombin assay. […] From this 100 μM solution, seven serial 1:5 dilutions were made in buffer for assay.

thrombin = thrombin (Bos taurus, UniProt P00735); assay: Thrombin inhibition assay (Ki, Example 5); type: biochemical, bovine; set-up: thrombin; bovine plasma; 0.66; from tissue; host or cells: bovine plasma
Method: as §3
Seven sequential dilutions were made from the first point for the assay.

FVIIa and TF complex = target: T7, FVIIa and TF complex (Homo sapiens, UniProt P08709); assay: Factor VII inhibition assay (IC50, Example 4); type: biochemical
T7 construct: 50 μl of 16 nM FVIIa and TF complex solution
T7 sequence (P08709 213-466 limits assumed): as the sequence (P08709 213-466 limits assumed) above
T7 sequence (P08709 61-212 limits assumed): as the sequence (P08709 61-212 limits assumed) above
T7 sequence (P13726 33-295 partner): as the sequence (P13726 33-295 partner) above
Method: (§4) This solution (2.05 mM) served as the stock solution for all the inhibition assays. The hydrolysis of chromogenic substrates was monitored at 405 nm. The reaction progress curves were recorded by reading the plates typically 90 times with 30 seconds to 2 minute intervals. The initial rate were determined by unweighted nonlinear least-squares fitting to a first order reaction in GraFit.
In the Factor VII assay, S-2288 (from Pharmacia), D-Ile-Pro-Arg-pNA was used at […] in deionized water as substrate. […] This dilution served as the first point of the inhibitor (20 μM). From this concentration point 6 more sequential dilutions were made with a dilution factor of 2. 50 μl of 16 nM FVIIa and TF complex solution and 40 μl of the inhibitor solutions were added into each well, the mixtures were incubated for 20 minutes before 10 μl of 20 mM S-2288 was added.

bovine factor Xa = target: T8, bovine factor Xa (Bos taurus, UniProt P00743); assay: Factor X inhibition assay (IC50, Example 4); type: biochemical
T8 construct: 25 nM of bovine factor Xa (from Sigma); purchased Sigma
T8 sequence (P00743 234-492 limits assumed): as the sequence (P00743 234-492 limits assumed) above
T8 sequence (P00743 41-180 limits assumed): as the sequence (P00743 41-180 limits assumed) above
Method: as §4
In the Factor X assay, buffer and substrate are the same as used for thrombin assay. A 1:100 dilution was made into pH 8.4 Tris buffer to serve as the first point. Seven dilutions with a dilution factor of 2 were made. The assay protocol is the same as for thrombin except 25 nM of bovine factor Xa (from Sigma) in pH 8.4 Tris buffer was used instead of thrombin.

[6] = target: T4, Tissue Plasminogen Activator (t-PA); assay: Tissue plasminogen activator inhibition assay (IC50, Example 4); type: biochemical
Method: as §4
Buffer, substrate and the dilution scheme of structure (13b) were the same as utilized for Factor VII assay.

Plasmin [7] = target: T5, Plasmin; assay: Plasmin inhibition assay (IC50, Example 4); type: biochemical
Method: as §4
For dilutions of structure (13b) (see urokinase assay).

bovine trypsin = target: T9, bovine trypsin (Bos taurus, UniProt P00760); assay: Trypsin inhibition assay (IC50, Example 4); type: biochemical
T9 construct: purchased Sigma
T9 sequence (P00760 24-246): T6 sequence (P00760 24-246)
Method: as §4
In the trypsin assay, pH 7.8 Tris (0.10 M Tris and 0.02 M CaCl2) was utilized as the buffer. BAPNA (from Sigma) was used at 1 mg/ml in 1% DMSO (v/v) deionized water solution as substrate. The same dilutions of structure (13b) were made as for Factor VII assay.

control plasma = assay: Prothrombin time (PT) in control plasma; type: biochemical
Method: Then 200 μl of prewarmed (at 37° C. for ˜10 minutes) thromboplastin with calcium (from Sigma) was rapidly added into the plasma sample.

urokinase [8] = target: T3, urokinase; assay: Urokinase inhibition assay (IC50, Example 4); type: biochemical; set-up: purchased Sigma
Method: as §4
In the urokinase assay, buffer was pH 8.8 0.05 M Tris and 0.05 M NaCl in deionized water. S-2444 (from Sigma), pyroGlu-Gly-Arg-pNA at 0.5 mM in water was utilized as substrate. The same dilution procedure was used as for Factor VII and Factor X. Assay protocol is the same as for thrombin except 18.5 nM of human urokinase (from Sigma) was utilized.

kcat (bovine thrombin; substrate hydrolysis, pH 8.4 Tris, 37° C.): 50 s⁻¹
Activity compared to the control (D)FPR-PNA (bovine thrombin; thrombin, ratio of kcat/KM): 0.76
Activity compared to the control (D)FPR-PNA [1]: 1.38
Compound: N=C(N)NCCC[C@H](NC(=O)[C@@H]1CCN2CC[C@@](N)(Cc3ccccc3)C(=O)N12)C(=O)Nc1ccc([N+](=O)[O-])cc1 [Structure 11b]

Ki (factor VII): 200 nM
Ki (factor X): 17 nM
Ki (urokinase [2]): 335 nM
Ki [3]: 92.9 nM
Ki [4]: 1250 nM
Ki (Plasmin [5]): 251 nM
Ki (tryptase): 9 nM
Ki (trypsin): 0.2 nM and 0.23 nM
Ki (Factor XI): 75.3 nM
Ki (thrombin): 0.085 nM
Compound: N=C(N)NCCC[C@H](NC(=O)[C@@H]1CC[C@@H]2CC[C@@](N)(Cc3ccccc3)C(=O)N21)C(=O)c1nc2ccccc2s1 [Structure 29b]

IC50 (FVIIa and TF complex): 200 nM
IC50 (bovine factor Xa): 165 nM
IC50 [6]: 106 nM
IC50 (Plasmin [7]): 699 nM
IC50 (bovine trypsin): 212 nM
Compound: N=C(N)NCCC[C@H](NC(=O)[C@@H]1CCCN1C(=O)[C@H](N)Cc1ccccc1)C(=O)CCl [PPACK, reference compound]
PT (control plasma; Concentration 500 pM): 15 s
PT (control plasma; Concentration 1 nM): 18 s
PT (control plasma; Concentration 10 nM): 22 s
PT (control plasma; Concentration 20 nM): 25 s
PT (control plasma; Concentration 40 nM): 28 s
PT (control plasma; Concentration 60 nM): 30 s
PT (control plasma; Concentration 80 nM): 31 s
